Data from patent US12077503B2, “Substituted cyclic amides and their use as herbicides” (FMC CORPORATION, priority 2015, dated 2024).

Legend:
Type in all cases: in vivo
[1] = tested on: barnyardgrass (Echinochloa crus-galli); experiment: Test G Pre-Emergence Protocol; settings: Echinochloa crus-galli, pre-emergence, 312 h, evaluated after 13 days
In short: (§1)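 Spraying took place one day after sowing, at 15.625, 62.5 or 250 g/ha, using an acetone/water (50:50) spray solution containing 0.5% Tween 20. Plants were kept under glasshouse conditions (24/16 °C, 14 h light, 65% humidity, watered twice daily), and injury was rated 0–100 at day 13.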

[2] = tested on: corn (Zea mays); experiment: Test G Pre-Emergence Protocol; settings: Zea mays, pre-emergence, 312 h, evaluated after 13 days
In short: as §1

[3] = tested on: giant foxtail (Setaria faberi); experiment: Test G Pre-Emergence Protocol; settings: Setaria faberi, pre-emergence, 312 h, evaluated after 13 days
In short: as §1

[4] = tested on: ivy-leaved morning glory (Ipomoea hederacea); experiment: Test G Pre-Emergence Protocol; settings: Ipomoea, pre-emergence, 312 h, evaluated after 13 days
In short: as §1

[5] = tested on: redroot pigweed (Amaranthus retroflexus); experiment: Test G Pre-Emergence Protocol; settings: Amaranthus retroflexus, pre-emergence, 312 h, evaluated after 13 days
In short: as §1

[6] = tested on: velvetleaf (Abutilon theophrasti); experiment: Test G Pre-Emergence Protocol; settings: Abutilon theophrasti, pre-emergence, 312 h, evaluated after 13 days
In short: as §1

[7] = tested on: barnyardgrass (Echinochloa crus-galli); experiment: Test G Post-Emergence Protocol; settings: Echinochloa crus-galli, post-emergence, 312 h, read-out: Barnyardgrass damage rating
In short: (§2)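 Pot-grown seedlings, 8 days old, raised in a glasshouse at 24/16 °C day/night with 14 h light and 65% humidity, were sprayed post-emergence with test compound in acetone/water (50:50) plus 0.5% Tween 20 at 15.625, 62.5 or 250 g/ha. Damage was scored visually 13 days later on a 0–100 scale (100 = total damage).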

[8] = tested on: corn (Zea mays); experiment: Test G Post-Emergence Protocol; settings: Zea mays, post-emergence, 312 h, read-out: Corn damage rating
In short: as §2

[9] = tested on: giant foxtail (Setaria faberi); experiment: Test G Post-Emergence Protocol; settings: Setaria faberi, post-emergence, 312 h, read-out: Foxtail, Giant damage rating
In short: as §2

[10] = tested on: ivy-leaved morning glory (Ipomoea hederacea); experiment: Test G Post-Emergence Protocol; settings: Ipomoea, post-emergence, 312 h, read-out: Morningglory, Ivy-leaved damage rating
In short: as §2

[11] = tested on: redroot pigweed (Amaranthus retroflexus); experiment: Test G Post-Emergence Protocol; settings: Amaranthus retroflexus, post-emergence, 312 h, read-out: Pigweed, Redroot damage rating
In short: as §2

[12] = tested on: velvetleaf (Abutilon theophrasti); experiment: Test G Post-Emergence Protocol; settings: Abutilon theophrasti, post-emergence, 312 h, read-out: Velvetleaf damage rating
In short: as §2

[13] = 15.625 g ai/ha, evaluated after 13 days (100=total damage to plant; 0=no damage to plant)
[14] = 62.5 g ai/ha, evaluated after 13 days, 100=total damage to plant, 0=no damage to plant
[15] = 250 g ai/ha, evaluated after 13 days, 100=total damage to plant, 0=no damage to plant

CN1C[C@H](c2cccc(C(F)(F)F)c2)[C@@H](C(=O)Nc2ccc(O)cc2F)C1=O (racemic) [Compound 1785]
pest or weed control at 15.625 g/ha ([1]; 15.625 g ai/ha, read-out: Barnyardgrass damage rating (100=total damage to plant; 0=no damage to plant)): 0%
pest or weed control at 62.5 g/ha ([1]; 62.5 g ai/ha, 100=total damage to plant, 0=no damage to plant, read-out: Barnyardgrass damage rating): 0%
pest or weed control at 250 g/ha ([1]; 250 g ai/ha, read-out: Barnyardgrass damage rating (100=total damage to plant; 0=no damage to plant)): 0%
plant injury at 15.625 g/ha ([2]; 15.625 g ai/ha, read-out: Corn damage rating (100=total damage to plant; 0=no damage to plant)): 0%
plant injury at 62.5 g/ha ([2]; 62.5 g ai/ha, 100=total damage to plant, 0=no damage to plant, read-out: Corn damage rating): 0%
plant injury at 250 g/ha ([2]; 250 g ai/ha, read-out: Corn damage rating (100=total damage to plant; 0=no damage to plant)): 0%
pest or weed control at 15.625 g/ha ([3]; 15.625 g ai/ha, read-out: Foxtail, Giant damage rating (100=total damage to plant; 0=no damage to plant)): 0%
pest or weed control at 62.5 g/ha ([3]; 62.5 g ai/ha, 100=total damage to plant, 0=no damage to plant, read-out: Foxtail, Giant damage rating): 0%
pest or weed control at 250 g/ha ([3]; 250 g ai/ha, read-out: Foxtail, Giant damage rating (100=total damage to plant; 0=no damage to plant)): 10%
pest or weed control at 15.625 g/ha ([4]; 15.625 g ai/ha, read-out: Morningglory, Ivy-leaved damage rating (100=total damage to plant; 0=no damage to plant)): 0%
pest or weed control at 62.5 g/ha ([4]; 62.5 g ai/ha, 100=total damage to plant, 0=no damage to plant, read-out: Morningglory, Ivy-leaved damage rating): 0%
pest or weed control at 250 g/ha ([4]; 250 g ai/ha, read-out: Morningglory, Ivy-leaved damage rating (100=total damage to plant; 0=no damage to plant)): 0%
pest or weed control at 15.625 g/ha ([5]; 15.625 g ai/ha, read-out: Pigweed, Redroot damage rating (100=total damage to plant; 0=no damage to plant)): 0%
pest or weed control at 62.5 g/ha ([5]; 62.5 g ai/ha, 100=total damage to plant, 0=no damage to plant, read-out: Pigweed, Redroot damage rating): 0%
pest or weed control at 250 g/ha ([5]; 250 g ai/ha, read-out: Pigweed, Redroot damage rating (100=total damage to plant; 0=no damage to plant)): 20%
pest or weed control at 15.625 g/ha ([6]; 15.625 g ai/ha, read-out: Velvetleaf damage rating (100=total damage to plant; 0=no damage to plant)): 0%
pest or weed control at 62.5 g/ha ([6]; 62.5 g ai/ha, 100=total damage to plant, 0=no damage to plant, read-out: Velvetleaf damage rating): 0%
pest or weed control at 250 g/ha ([6]; 250 g ai/ha, read-out: Velvetleaf damage rating (100=total damage to plant; 0=no damage to plant)): 0%
pest or weed control at 15.625 g/ha [7, 13]: 0%
pest or weed control at 62.5 g/ha [7, 14]: 0%
pest or weed control at 250 g/ha [7, 15]: 0%
plant injury at 15.625 g/ha [8, 13]: 0%
plant injury at 62.5 g/ha [8, 14]: 0%
plant injury at 250 g/ha [8, 15]: 0%
pest or weed control at 15.625 g/ha [9, 13]: 0%
pest or weed control at 62.5 g/ha [9, 14]: 0%
pest or weed control at 15.625 g/ha [10, 13]: 0%
pest or weed control at 62.5 g/ha [10, 14]: 0%
pest or weed control at 250 g/ha [10, 15]: 0%
pest or weed control at 15.625 g/ha [11, 13]: 0%
pest or weed control at 62.5 g/ha [11, 14]: 0%
pest or weed control at 250 g/ha [11, 15]: 0%
pest or weed control at 15.625 g/ha [12, 13]: 0%
pest or weed control at 62.5 g/ha [12, 14]: 0%
pest or weed control at 250 g/ha [12, 15]: 0%
